# Patent publication US20260335279A1, “METHODS OF TREATING ISCHEMIA-REPERFUSION INJURIES” (University of Cincinnati, priority 2022, published 2026)
# Legend:
# [1] = test system: myocardial ischemia-reperfusion injury in mice; experiment: 2D echocardiography (cardiac function) in murine myocardial ischemia-reperfusion injury; assay type: in vivo, mouse (C57BL/6); conditions: 30 min ischemia
# Description: Cardiac function was assessed by transthoracic echocardiography using the VisualSonics Vevo F2 system (VisualSonics, Toronto, ON). Sedation was induced by 3% isoflurane and maintained at 0.5% isoflurane during the procedure, during which the animals were placed on a heated table under a lamp at approximately 37 °C. Parasternal long axis (PSLAX) and short axis (SAX) images were recorded and then analyzed on a separate workstation with VevoLab software (Vevo 2100, v1.6, Visualsonic, Toronto, Canada). From the M-mode images, left ventricular cavity size for systole and diastole (LV dia;s, LV dia;d, LV Vol;s and LV Vol;d) were measured. Heart rate (HR), stroke volume (SV), and the echocardiographic calculation for fractional shortening (FS), ejection fraction (EF) and cardiac output (CO) were obtained using the Vevo software. Treatment and control groups were analyzed on the same day by the same technician in order to minimize variation. For VevoStrain analysis, B-mode images of 300 frames at greater than 200 frames/second were used.
# The myocardial ischemia/reperfusion surgical protocol was applied as follows. Mice were anesthetized with 2% isoflurane inhalation until anesthesia was achieved. […] The mouse was then monitored during the recovery period, which was generally completed within 3 to 5 minutes. […]
# [2] = test system: myocardial ischemia-reperfusion injury in mice; experiment: Infarct size evaluation upon Evans Blue/TTC staining after myocardial I/R; assay type: in vivo, mouse (C57BL/6); conditions: ML264 25 mg/kg/12 h intraperitoneal; 30 min ischemia, 24 h reperfusion; vs vehicle
# Description: The myocardial ischemia/reperfusion surgical protocol was applied as follows. Mice were anesthetized with 2% isoflurane inhalation until anesthesia was achieved. The animals' body temperature was maintained at 37 °C throughout the surgical procedure using a heating pad. A tracheal tube was placed via tracheal intubation and the respiration rate was set at 150 strokes/min with a tidal volume of 200 μL, using Minivent ventilator for mice (Model 845, Harvard Apparatus). A 1.2 cm incision was made over the left chest. After retraction of the pectoral major and minor muscles, the fourth intercostal space was exposed. […] The left anterior descending coronary artery (LAD) was then located, sutured, and ligated at a site 3-4 mm distal to the origin of the artery under the left atrium using a 6-0 silk suture. The heart was allowed to stabilize for 15 min and right after, ischemia was induced by tightening the suture against a small piece of polyethylene tube. At the end of the 30-minute ischemia period, the ligature was released for the induction of reperfusion, and then the manual evacuation of air and closure of muscle and skin were performed. The mouse was then monitored during the recovery period, which was generally completed within 3 to 5 minutes. Sustain-released buprenorphine (BupSR, 0.5 mg/kg body weight) was provided by subcutaneous injection. Mice were then left to recover until the end of the reperfusion (2 hours, 12 hours, 24 hours, or 4 weeks). The sham group underwent the same surgical procedure except that the LAD was not occluded.
# Double staining of the heart with Evans Blue dye and Triphenyl-Tetrazolium Chloride (TTC) solution was employed for infarct size measurements. Mice were anesthetized upon 3% isoflurane inhalation. The thorax was cut and opened, and hearts were gently excised. Then, the aorta was cannulated and perfused with 5 mL of normal saline. The suture was re-tightened and Evans Blue solution (2.5% in WFI) was slowly infused through the aorta, to differentiate the ischemic part of the myocardium from the non-occluded, normally perfused area. The hearts were sliced into 1-2 mm sections immediately following. The heart slices were incubated with TTC solution (1% in PBS, pH=7.4) at 37 °C for 20 min. In this way, the necrotic area is delimited as a white area, while the viable tissue is stained red. […] The overall size of each slice (All/A), the area-at-risk (R), and the infarct area (I) were determined in a blinded manner for each slice using ImageJ software, and the percentages of Area at Risk (R/A) % and I/R % were calculated. […]
# Administration of these two compounds was performed 5 minutes before the reopening of the coronary artery and infarct size was assessed upon 30 minutes of ischemia followed by 24 hours of reperfusion therapy.
# IL-6 = IL-6 mRNA in ischemic myocardium; assay type: in vivo, mouse (C57BL/6); conditions: evaluated at 2 h and 24 h of reperfusion, vs vehicle
# Description: (§1) The myocardial ischemia/reperfusion surgical protocol was applied as follows. Mice were anesthetized with 2% isoflurane inhalation until anesthesia was achieved. The animals' body temperature was maintained at 37 °C throughout the surgical procedure using a heating pad. A tracheal tube was placed via tracheal intubation and the respiration rate was set at 150 strokes/min with a tidal volume of 200 μL, using Minivent ventilator for mice (Model 845, Harvard Apparatus). A 1.2 cm incision was made over the left chest. After retraction of the pectoral major and minor muscles, the fourth intercostal space was exposed. […] The mouse was then monitored during the recovery period, which was generally completed within 3 to 5 minutes. […]
# (§2) Total RNA was purified from heart tissue using the TRIzol reagent according to the instructions of the manufacturer (ThermoFischer Scientific, Cat. No.: 15596018). cDNA synthesis was performed using the Applied Biosystems High Capacity cDNA Reverse Transcription Kit (ThermoFischer Scientific, Cat. No.: 4368814) from 500 ng RNA, which had been treated with DNAase I (ThermoFischer Scientific, Cat. No.: 18068015). Quantitative real-time PCR was performed with the SYBR Select Master Mix (ThermoFischer Scientific, Cat. No.: 4472903) using the manufacturer's recommendations. […]
# TNFα = TNFα mRNA in ischemic myocardium; assay type: in vivo, mouse (C57BL/6); conditions: evaluated at 2 h and 24 h of reperfusion, vs vehicle
# Description: as §1, §2
# Ugp = Ugp mRNA expression after I/R; assay type: in vivo, mouse; conditions: ML-264 treatment
# Description: as §1, §2
smiles,measurement,setting,value
CN(C(=O)CNC(=O)/C=C/c1cccc(Cl)c1)C1CCS(=O)(=O)CC1 [ML264],ejection fraction (4 weeks),"[1]; 4 weeks reperfusion, two doses of ML264 at early reperfusion, vs IR vehicle",significant preservation
same,ejection fraction,"[1]; 24 h reperfusion, 25 mg/kg/12 h intraperitoneal, first dose 5 min before reopening of coronary artery, vs vehicle",significant preservation
same,infarct size,[2],significant reduction
same,IL-6 mRNA levels,IL-6,Significant suppression
same,TNFα mRNA levels,TNFα,Significant suppression
same,relative mRNA expression of Ugp,Ugp,did not result in a change
